This note sets out measurements from patent publication US12157746B2, “Tetrahydro-1H-pyrazino[2,1-a]isoindolylquinoline compounds for the treatment of autoimmune disease” (F. HOFFMANN-LA ROCHE AG, priority 2018, dated 2024).

Converted amounts (≈) assume the structure as drawn.

One data set has as its target T1, hERG K+ channel (Homo sapiens, UniProt Q12809).
T1 construct: expressed in transfected cells; host or cells: CHO (Chinese hamster ovary) cells, CHOhERG
In words: hERG channel inhibition assay. It is filed as cell-based. Particulars: patch-clamp (voltage-clamp, whole-cell); for IC50: CHO cells expressing hERG; for IC20: human, CHO cells stably expressing hERG. On the procedure:
hERG Channel Inhibition Assay
The hERG K^+ channels were cloned in humans and stably expressed in a CHO (Chinese hamster ovary) cell line. CHOhERG cells were used for patch-clamp (voltage-clamp, whole-cell) experiments. Cells were stimulated by a voltage pattern to activate hERG channels and conduct IKhERG currents (rapid delayed outward rectifier potassium current of the hERG channel). After the cells were stabilized for a few minutes, the amplitude and kinetics of IKhERG were recorded at a stimulation frequency of 0.1 Hz (6 bpm). Thereafter, the test compound was added to the preparation at increasing concentrations. For each concentration, an attempt was made to reach a steady-state effect, usually, this was achieved within 3-10 min at which time the next highest concentration was applied. The amplitude and kinetics of IKhERG are recorded in each concentration of the drug which were compared to the control values (taken as 100%). (references: Redfem W S, Carlsson L, Davis A S, Lynch W G, MacKenzie I, Palethorpe S, Siegl P K, Strang I, Sullivan A T, Wallis R, Camm A J, Hammond T G. 2003; Relationships between preclinical cardiac electrophysiology, clinical QT interval prolongation and torsade de pointes for a broad range of drugs: evidence for a provisional safety margin in drug development. Cardiovasc. Res. 58:32-45, Sanguinetti M C, Tristani-Firouzi M. 2006; hERG potassium channels and cardiac arrhythmia. Nature 440:463-469, Webster R, Leishman D, Walker D. 2002; Towards a drug concentration effect relationship for QT prolongation and torsades de pointes. Curr. Opin. Drug Discov. Devel. 5:116-26).
Background: Block of hERG is tested as a sign of cardiac risk.

Data set [1] deals with Balb/c 3T3 mouse fibroblasts. In words: 3T3 in vitro phototoxicity assay. It is filed as cell-based. As to conditions: Neutral Red uptake. The text has this: 3T3 In Vitro Phototoxicity Assay
Phototoxicity is defined as a toxic response that is elicited after the first exposure of the skin to certain chemicals and subsequent exposure to light, or that is induced similarly by skin irradiation after systemic administration of a chemical substance. The assay used in this study is designed to detect the phototoxic potential of a chemical by using a simple in vitro cytotoxicity assay with Balb/c 3T3 mouse fibroblasts. The principle of this test is a comparison of the cytotoxicity of a chemical when tested with and without exposure to a non-toxic dose of UVA-light. Cytotoxicity is expressed as a dose dependent reduction of the growth rate of cells as determined by uptake of the vital dye Neutral Red one day after treatment.
A small amount of substance was weighed and formulated freshly in DMSO just before the start of the exposure of the cells. This stock solution or appropriate dilutions with DMSO were added to the cell suspensions to obtain the required final concentrations. All solutions were generally prepared in Eppendorf caps and discarded after use.
For this study the Neutral Red uptake (NRU) assay of Borenfreund and Puemer (Borenfreund, E, Puemer J A. Toxicity determined in vitro by morphological alterations and Neutral Red absorption. Toxicology Lett. 1985; 24:119-124) modified according to INVITTOX protocol No 78 (ERGATT/FRAME data bank of in vitro techniques in toxicology. INVITTOX PROTOCOL No 78. 3T3 NRU Phototoxicity Assay. March 1994) has been adapted to examine a possible phototoxic potential of the test item. This assay is based on the active uptake of the Neutral Red dye into the lysosomes of cultured murine fibroblasts. Because lysosomal membranes are known to be a site of action of many phototoxic compounds, this assay can provide a measure of potential for phototoxic injury.
A murine fibroblasts clone A 31 (ATCC no. CCL 163—passage No. 108) were cultured in 175 cm2 tissue culture grade flasks, containing sDMEM (Dulbecco's Minimal Essential Medium, supplemented with 10% fetal calf serum, 2 mM L-glutamine, 100 units/ml Penicillin and 100 μg/ml streptomycin) at 37° C. in a humidified atmosphere of 6% C02. Before cells approach confluence they were removed from flasks by trypsinisation. Prior to use in an assay, the cells were transferred to 96-well microtiter plates at a concentration of 1×10^4 cells/well in 100 μl volumes of sDMEM and allowed to attach for 24 h.
For incubation with murine fibroblasts, the test item was diluted in PBS/3% DMSO (detailed concentrations see in results).
Culture medium (Dulbecco's Modified Eagle Medium (DMEM), GlutaMAX (Gibco Ref 21885-025), 10% Fetal Bovine Serum (FBS) (Gibco Ref 10270-106), 100 IU/ml Penicillin and 100 μg/ml Streptomycin (Gibco Ref 15140-122)) was removed from the wells and murine fibroblasts were washed with PBS. Afterwards 100 μL of PBS/3% DMSO containing the test item was added and target cells were incubated for 1 h at 37° C. with 6% CO2.
For each test item the microtiter plates were prepared according to Table 4. “UVA plates” were exposed to approx. 5 J/cm2 UVA light, the “Dark plates” were kept in the dark and served as cytotoxicity control. Plates with chlorpromazine hydrochloride served as positive control. UV flux was measured with a UV-meter (Dr. Gröbel RM21).
Following UV irradiation, the test item was removed from the wells (one washing step with PBS) and replaced with sDMEM. Target cells were then incubated overnight at 37° C. in 6% CO2.
Each plate contained wells with cells and solvent but without test item which were either not incubated with Neutral Red solution (0% standard—S1) or were stained with Neutral Red (100% standard—S2) for calculation of the standard cell viability curve. Wells labeled with U01-U08 contained the different test item concentrations.
After the incubation the wells to be assayed were filled with 100 μL of the sDMEM containing Neutral Red. […]

T1 sequence (Q12809 whole entry): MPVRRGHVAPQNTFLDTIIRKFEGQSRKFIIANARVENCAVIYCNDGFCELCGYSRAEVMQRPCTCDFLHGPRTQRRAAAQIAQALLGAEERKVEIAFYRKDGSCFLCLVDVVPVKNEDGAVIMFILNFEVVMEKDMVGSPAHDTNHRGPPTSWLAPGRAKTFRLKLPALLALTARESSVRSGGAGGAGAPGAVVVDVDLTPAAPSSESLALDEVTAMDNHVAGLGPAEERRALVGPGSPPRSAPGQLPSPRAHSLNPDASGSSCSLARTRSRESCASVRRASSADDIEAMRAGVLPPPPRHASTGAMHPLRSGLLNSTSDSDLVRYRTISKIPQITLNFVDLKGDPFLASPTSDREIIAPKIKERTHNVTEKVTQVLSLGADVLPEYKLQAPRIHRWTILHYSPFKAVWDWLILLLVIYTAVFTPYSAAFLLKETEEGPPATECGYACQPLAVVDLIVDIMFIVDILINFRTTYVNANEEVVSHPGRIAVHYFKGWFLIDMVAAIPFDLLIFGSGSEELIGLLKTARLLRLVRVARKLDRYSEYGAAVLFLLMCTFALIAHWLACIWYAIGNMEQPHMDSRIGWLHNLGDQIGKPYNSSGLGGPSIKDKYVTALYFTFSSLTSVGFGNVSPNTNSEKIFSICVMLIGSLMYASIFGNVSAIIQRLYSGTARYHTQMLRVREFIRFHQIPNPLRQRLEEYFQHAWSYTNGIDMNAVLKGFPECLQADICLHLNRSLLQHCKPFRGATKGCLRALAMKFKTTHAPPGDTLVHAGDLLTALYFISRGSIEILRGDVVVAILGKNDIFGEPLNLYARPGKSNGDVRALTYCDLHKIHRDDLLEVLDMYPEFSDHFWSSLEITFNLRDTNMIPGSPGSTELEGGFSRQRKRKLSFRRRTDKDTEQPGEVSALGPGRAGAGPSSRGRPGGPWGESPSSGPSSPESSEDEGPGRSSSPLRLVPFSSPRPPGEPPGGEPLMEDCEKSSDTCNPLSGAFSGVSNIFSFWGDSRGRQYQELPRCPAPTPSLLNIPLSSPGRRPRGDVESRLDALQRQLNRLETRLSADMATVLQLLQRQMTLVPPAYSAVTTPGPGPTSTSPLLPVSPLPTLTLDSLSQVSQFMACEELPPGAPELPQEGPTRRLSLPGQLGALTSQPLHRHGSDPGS

Take `C[C@@H]1CN(c2ccc(C#N)c3ncccc23)C[C@@H]2c3ccc(NCCN4CC[C@H](O)C4)cc3CN12` [Example 68, 5-[(4R,10bS)-8-[2-[(3S)-3-hydroxypyrrolidin-1-yl]ethylamino]-4-methyl-3,4,6,10b-tetrahydro-1H-pyrazino[2,1-a]isoindol-2-yl]quinoline-8-carbonitrile]: at hERG K+ channel, the IC50 was more than 20 µM and the IC20 is 5.6 µM.

At hERG K+ channel, `C[C@H]1CN(c2ccc(C#N)c3ncccc23)C[C@H]2c3ccc(N4CCNCC4)cc3CN12` [Example 2, 5-[(4S,10bR)-4-methyl-8-piperazin-1-yl-3,4,6,10b-tetrahydro-1H-pyrazino[2,1-a]isoindol-2-yl]quinoline-8-carbonitrile] yielded a 50% inhibitory concentration (IC50) of more than 20 µM and a concentration for an effect of 20% (IC20) of more than 10 µM.

At hERG K+ channel, `C[C@@H]1CN(c2ccc(C#N)c3ncccc23)C[C@@H]2c3ccc(NC[C@H]4CNCCO4)cc3CN12` [Example 59, 5-[(4R,10bS)-4-methyl-8-[[(2R)-morpholin-2-yl]methylamino]-3,4,6,10b-tetrahydro-1H-pyrazino[2,1-a]isoindol-2-yl]quinoline-8-carbonitrile] had an IC50 of more than 20 µM and a concentration for an effect of 20% (IC20) of more than 10 µM.

As to `C[C@@H]1CN(c2ccc(C#N)c3ncccc23)C[C@@H]2c3ccc(N4C[C@H]5CNCCN5C4=O)cc3CN12` [Example 72, 5-[(4R,10bS)-8-[(8aR)-3-oxo-1,5,6,7,8,8a-hexahydroimidazo[1,5-a]pyrazin-2-yl]-4-methyl-3,4,6,10b-tetrahydro-1H-pyrazino[2,1-a]isoindol-2-yl]quinoline-8-carbonitrile], at hERG K+ channel, the IC50 was more than 20 µM and the IC20 was more than 10 µM.

`C[C@@H]1CN(c2ccc(C#N)c3ncccc23)C[C@@H]2c3ccc(NCC4COCCN4)cc3CN12` (stereo partly drawn) [Example 57, 5-[(4R,10bS)-4-methyl-8-(morpholin-3-ylmethylamino)-3,4,6,10b-tetrahydro-1H-pyrazino[2,1-a]isoindol-2-yl]quinoline-8-carbonitrile]: on hERG K+ channel, the IC50 is more than 20 µM and the 20% effect concentration (IC20) is more than 10 µM.

In data set [1] (Factor=IC50(−UV)/IC50(+UV), cut-off factor >5), `[2H]c1ccc2c(N3C[C@@H](C)N4Cc5cc(N6CC7(CNCCO7)C6)ccc5[C@H]4C3)ccc(C#N)c2n1` [Example 90, 5-[(4R,10bS)-4-methyl-8-(5-oxa-2,8-diazaspiro[3.5]nonan-2-yl)-3,4,6,10b-tetrahydro-1H-pyrazino[2,1-a]isoindol-2-yl]-2-deuterio-quinoline-8-carbonitrile] gave a Phototoxicity factor of more than 2. Further, the concentration for half-maximal inhibition (IC50) in data set [1] (Mus musculus, BALB/c3T3, light or radiation study, with approx. 5 J/cm2 UVA light) was found to be 50.6 µg/mL (≈ 108 µM).

For the molecule `CO[C@@H]1CNC[C@@H]1Nc1ccc2c(c1)CN1[C@H](C)CN(c3ccc(C#N)c4ncccc34)C[C@H]21` [Example 60, 5-[(4R,10bS)-8-[[(3S,4R)-4-methoxypyrrolidin-3-yl]amino]-4-methyl-3,4,6,10b-tetrahydro-1H-pyrazino[2,1-a]isoindol-2-yl]quinoline-8-carbonitrile], on hERG K+ channel, the half-inhibitory concentration (IC50) is more than 20 µM and the concentration for an effect of 20% (IC20) was more than 10 µM.

On hERG K+ channel, `CO[C@H]1CNC[C@@H]1N(C)c1ccc2c(c1)CN1[C@H](C)CN(c3ccc(C#N)c4ncccc34)C[C@H]21` [Example 64, 5-[(4R,10bS)-8-[[(3S,4S)-4-methoxypyrrolidin-3-yl]-methyl-amino]-4-methyl-3,4,6,10b-tetrahydro-1H-pyrazino[2,1-a]isoindol-2-yl]quinoline-8-carbonitrile] returned an IC50 of more than 20 µM and a 20% effect concentration (IC20) of 8.5 µM.

In general, IC50 refers to the concentration that gives 50% inhibition. High values mean lower potency, low ones higher potency. In general, IC20 refers to the concentration at which the effect reaches the 20% level. Higher therefore signals a need for much substance.
